Literature values as cited in patent publication US20260021104A1, “BRILAROXAZINE LIPOSOME COMPOSITION” (Reviva Pharmaceuticals, Inc., priority 2023, published 2026).

Key:
D2-4 receptors = details: partial agonist
5-HT2B/7 = details: antagonist
5-HT2A = 5-HT2A (Homo sapiens, UniProt P28223); details: weak partial agonist or neutral antagonist
[1] = biological target: serotonin transporter (SERT) (Homo sapiens, UniProt P31645)
5-HT1A receptors = biological target: T1, 5-HT1A receptors (Homo sapiens, UniProt P08908); details: partial agonist
T1 sequence (P08908 1-422): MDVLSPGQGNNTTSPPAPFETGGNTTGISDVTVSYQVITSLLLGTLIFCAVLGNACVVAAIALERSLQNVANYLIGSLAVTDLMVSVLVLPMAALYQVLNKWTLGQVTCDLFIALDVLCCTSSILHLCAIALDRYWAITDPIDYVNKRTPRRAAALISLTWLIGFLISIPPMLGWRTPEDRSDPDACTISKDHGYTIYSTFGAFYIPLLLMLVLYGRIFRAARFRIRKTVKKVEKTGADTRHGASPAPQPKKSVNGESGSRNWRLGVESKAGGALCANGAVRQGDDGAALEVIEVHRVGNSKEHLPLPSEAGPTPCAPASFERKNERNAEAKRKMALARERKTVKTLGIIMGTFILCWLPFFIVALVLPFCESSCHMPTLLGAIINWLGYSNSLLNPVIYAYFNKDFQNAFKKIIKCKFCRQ

serotonin transporter (SERT), sequence (P31645 whole entry, species assumed): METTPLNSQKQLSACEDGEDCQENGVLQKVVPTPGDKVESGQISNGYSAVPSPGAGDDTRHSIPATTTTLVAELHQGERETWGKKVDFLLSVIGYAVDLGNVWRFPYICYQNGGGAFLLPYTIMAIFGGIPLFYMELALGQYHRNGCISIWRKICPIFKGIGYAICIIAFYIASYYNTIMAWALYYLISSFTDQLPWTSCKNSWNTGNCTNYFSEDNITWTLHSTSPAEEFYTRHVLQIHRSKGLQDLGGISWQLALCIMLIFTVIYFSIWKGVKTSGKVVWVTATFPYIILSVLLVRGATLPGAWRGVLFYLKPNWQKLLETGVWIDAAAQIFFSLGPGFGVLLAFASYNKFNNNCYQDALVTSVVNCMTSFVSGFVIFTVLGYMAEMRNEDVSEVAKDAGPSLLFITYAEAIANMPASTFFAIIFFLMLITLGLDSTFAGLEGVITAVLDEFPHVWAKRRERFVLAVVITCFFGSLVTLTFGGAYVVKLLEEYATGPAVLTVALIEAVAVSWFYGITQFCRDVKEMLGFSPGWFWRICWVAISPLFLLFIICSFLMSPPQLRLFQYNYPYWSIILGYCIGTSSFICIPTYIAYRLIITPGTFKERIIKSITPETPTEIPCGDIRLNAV
5-HT2A, sequence (P28223 whole entry, species assumed): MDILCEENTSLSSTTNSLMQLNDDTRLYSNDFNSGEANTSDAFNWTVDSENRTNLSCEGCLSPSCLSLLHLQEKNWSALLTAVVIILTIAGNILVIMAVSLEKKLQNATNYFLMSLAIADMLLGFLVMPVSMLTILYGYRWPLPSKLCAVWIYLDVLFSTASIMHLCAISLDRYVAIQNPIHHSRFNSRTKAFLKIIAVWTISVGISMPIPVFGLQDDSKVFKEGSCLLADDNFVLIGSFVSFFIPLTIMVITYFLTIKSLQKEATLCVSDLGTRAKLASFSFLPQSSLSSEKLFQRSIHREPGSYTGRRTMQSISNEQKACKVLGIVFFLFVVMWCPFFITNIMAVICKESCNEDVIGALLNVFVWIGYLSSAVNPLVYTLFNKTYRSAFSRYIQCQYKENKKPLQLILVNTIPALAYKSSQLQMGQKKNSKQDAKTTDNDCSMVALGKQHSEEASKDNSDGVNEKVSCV

binding affinity (D2-4 receptors): high binding affinity
binding affinity (5-HT2B/7): high binding affinity
binding affinity (5-HT2A): high binding affinity
affinity [1]: moderate affinity
binding affinity (5-HT1A receptors): high binding affinity
Compound: O=C1COc2ccc(OCCCCN3CCN(c4cccc(Cl)c4Cl)CC3)cc2N1 [Brilaroxazine]
